Measured values as given in US20050209157A1, “Short bioactive peptides and methods for their use” (priority 2001, published 2005).
No end group written: not given here.

Legend:
in vitro [1] = settings: human, WI38 normal lung fibroblast cells, LD50 WI38, WI38 normal lung fibroblast line, MTT, 24 hours with peptide
P. aeruginosa H374 = type: cell-based, Pseudomonas aeruginosa
Protocol: The synergistic effects of the inventive peptides with either chloramphenicol or nalidixic acid against efflux mutants of Pseudomonas aeruginosa were investigated. The MIC values were determined for either nalidixic acid or chloramphenicol alone as baselines. Peptides were added at their ¼ MIC concentration, and the concentration of either nalidixic acid or chloramphenicol to arrive at the MIC was determined. […] The fractional inhibitory concentration (FIC) index was used to determine synergy between peptides and antibiotics. Two-fold serial dilutions of antibiotic were tested in the presence of a constant amount of peptide, equal to one quarter of peptide MIC. The FIC index was determined as follows: FIC=0.25+MICantibiotic in combination/MICantibiotic alone. An FIC index of 0.5 or less is considered as synergy.

in vitro [2] = type: cell-based, human; settings: human, human red blood cells, pH 7, hemolytic assay, concentration at 50% hemolysis, 1 hour at 37° C.; read-out: LD50
Protocol: This hemolytic assay is based upon that presented in Journal of Peptide Research 53: 82-90 (1999). […] All procedures were performed according to safety protocols pertaining to the handling and disposal of human body fluids.
Red blood cells (RBCs) were washed three times with PBS (35 mM phosphate buffer 0.15 M NaCl, pH 7.0). RBCs suspended in PBS (0.4% (v/v); about 10 ml per 15 peptides) were prepared. Suspensions (100 μl) were aliquoted to each sample and control tube. Serially diluted peptide solutions (100 μl) were pipetted into the sample tubes. Negative control tubes contained 100 μl PBS; positive control tubes contained 100 μl 1% Triton-X100 detergent. All tubes were incubated for 1 hour at 37° C. The tubes were removed from the incubator and centrifuged at 1000 g for 5 minutes. Supernatant (100 μl) was pipetted to a 96-well polyvinyl chloride plate. The absorbance at 414 nm (A414) was measured, and used to calculate the percent hemolysis according to the following formula. [formula]

PC3 = test: Anti-cancer assay, MTT, LD50; type: cell-based; settings: 24 hours with peptide, prostate adenocarcinoma
From the text: (§1) Numbers are LD50 values (μg/mL).

BMKC = test: Anti-cancer assay, MTT, LD50; type: cell-based; settings: BMKC cloned melanoma line, 24 hours with peptide
From the text: as §1

SW480 = test: Anti-cancer assay, MTT, LD50; type: cell-based; settings: SW480 colon adenocarcinoma line, 24 hours with peptide
From the text: as §1

HeLaS3 = test: Anti-cancer assay, MTT, LD50; type: cell-based; settings: 24 hours with peptide, cervical carcinoma
From the text: as §1

MCF7 = test: Anti-cancer assay, MTT, LD50; type: cell-based; settings: MCF7 breast adenocarcinoma line, MTT, 24 hours with peptide
From the text: as §1

H1299 = test: Anti-cancer assay, MTT, LD50; type: cell-based; settings: 24 hours with peptide, lung large cell carcinoma
From the text: as §1

WI38 = settings: MTT, 24 hours with peptide; normal fibroblast line
[3] = system: yeast (Saccharomyces cerevisiae); test: Antimicrobial assay I, yeast assay in RPMI 1640; type: cell-based; settings: RPMI 1640 media
Protocol: (§2) The data for the following antimicrobial assay of the peptides have been obtained by making OD measurements in in vitro cell culture experiments with and without added peptide. The protocol used is as follows.
(§3) Absorbance was read at 620 nm after shaking to resuspend cells.
The yeast assay was performed in RPMI 1640 media (pH 7.0 at 25° C.).
(§4) Staph6538 is Staphylococcus aureus ATCC accession number 6538; paerug9027 is Pseudomonas aeruginosa ATCC accession number 9027, yeast is Saccharomyces cerevisiae.

[4] = system: Staphylococcus aureus ATCC 6538; test: Antimicrobial assay I, MIC by OD measurement; type: cell-based; settings: 37° C. for 24 hours, absorbance 620 nm
From the text: as §2
(§5) Cell lines included Staphylococcus aureus ATCC 6538 or 25923, Pseudomonas aeruginosa ATCC 9027 or 27853. Medium used were Antibiotic Medium 3 (Difco), Antibiotic Medium 2 (Difco), and 0.85% saline. Controls used were physiological saline, and gentamycin at 50, 25, 10, 5, 1, and 0.1 ppm.
as §3, §4

[5] = system: Pseudomonas aeruginosa ATCC 9027; test: Antimicrobial assay I, MIC by OD measurement; type: cell-based; settings: 37° C. for 24 hours, absorbance 620 nm
From the text: as §2, §5, §3, §4

Substance | CC50 at 24 h (in vitro [1]) | MIC Cm-comb. (P. aeruginosa H374; MIC of chloramphenicol with peptide at ¼ MIC) | FIC Index (P. aeruginosa H374; chloramphenicol + peptide at ¼ MIC, 0.5 or less = synergy) | HC50 at 1 h (in vitro [2]) | PC3 LD50 (PC3) | LD50 BMKC (BMKC) | LD50 SW480 (SW480) | HeLaS3 LD50 (HeLaS3) | LD50 MCF7 (MCF7) | H1299 LD50 (H1299) | WI38 LD50 (WI38) | yeast (MIC or MFC) [3] | staph6538 (MIC) [4] | paerug9027 (MIC) [5]
FAKLLAKFLKKAL-NH2 [P113] | 170 µg/mL | 16 µg/mL | 1.25 | 1000 µg/mL | 240 µg/mL | 115 µg/mL | 180 µg/mL | 190 µg/mL | 150 µg/mL | 50 µg/mL | 170 µg/mL | 200 µg/mL | 10 µg/mL | 200 µg/mL
FAKLLAKLAKKGL-NH2 [P152] | 620 µg/mL | – | – | 880 µg/mL | > (> indicates greater than 1000) | > (> indicates greater than 1000) | 740 µg/mL | > (> indicates greater than 1000) | 430 µg/mL | 410 µg/mL | 620 µg/mL | 100 µg/mL | 100 µg/mL | 50 µg/mL
FAKLWAKLAFGKGIGKVGKKLL-NH2 [P135] | 110 µg/mL | – | – | 900 µg/mL | 310 µg/mL | 155 µg/mL | 80 µg/mL | 215 µg/mL | 54 µg/mL | 115 µg/mL | 110 µg/mL | 50 µg/mL | 15 µg/mL | 10 µg/mL
FALALKALKKAL-NH2 [P144, FALALKALKKAL-NH2] | 750 µg/mL | – | – | 600 µg/mL | 350 µg/mL | 250 µg/mL | 285 µg/mL | 275 µg/mL | 150 µg/mL | 225 µg/mL | 750 µg/mL | 50 µg/mL | 5 µg/mL | 50 µg/mL
FALALKLAKKAL-NH2 [P167, FALALKLAKKAL-NH2] | 260 µg/mL | – | – | 200 µg/mL | 320 µg/mL | 240 µg/mL | 360 µg/mL | 325 µg/mL | 230 µg/mL | 300 µg/mL | 260 µg/mL | 100 µg/mL | 10 µg/mL | 25 µg/mL
FALLKALKKAL-NH2 [P171, FALLKALKKAL-NH2] | 615 µg/mL | – | – | 550 µg/mL | 600 µg/mL | 600 µg/mL | 770 µg/mL | 820 µg/mL | 305 µg/mL | 540 µg/mL | 615 µg/mL | 100 µg/mL | 25 µg/mL | 50 µg/mL
FKRLAKIKVLRLAKIKR-NH2 [P147] | 83 µg/mL | – | – | 300 µg/mL | 340 µg/mL | 110 µg/mL | 185 µg/mL | > (> indicates greater than 1000) | 106 µg/mL | 93 µg/mL | 83 µg/mL | 200 µg/mL | 5 µg/mL | 5 µg/mL
KWKLAKKALALL-NH2 [P142] | 73 µg/mL | – | – | 900 µg/mL | 60 µg/mL | 38 µg/mL | 38 µg/mL | 55 µg/mL | 44 µg/mL | 115 µg/mL | 73 µg/mL | 100 µg/mL | 100 µg/mL | 50 µg/mL
KWKLFKKALKKLKKALKKAL-NH2 [P104] | 24 µg/mL | – | – | 70 µg/mL | 18 µg/mL | 100 µg/mL | 54 µg/mL | 130 µg/mL | 11 µg/mL | 52 µg/mL | 24 µg/mL | 200 µg/mL | 10 µg/mL | 10 µg/mL
LKKLAKLALAF-NH2 [P179] | 540 µg/mL | – | – | 850 µg/mL | > (> indicates greater than 1000) | 920 µg/mL | > (> indicates greater than 1000) | > (> indicates greater than 1000) | 555 µg/mL | > (> indicates greater than 1000) | 540 µg/mL | 100 µg/mL | 50 µg/mL | 50 µg/mL
VAKLLAKLAKKLL-NH2 [P48] | 41 µg/mL | – | – | 200 µg/mL | 32 µg/mL | 43 µg/mL | 47 µg/mL | 44 µg/mL | 23 µg/mL | 17 µg/mL | 41 µg/mL | 25 µg/mL | 5 µg/mL | 5 µg/mL
VAKLLAKLAKKVL-NH2 [P154] | 600 µg/mL | – | – | 450 µg/mL | 640 µg/mL | 330 µg/mL | 750 µg/mL | > (> indicates greater than 1000) | 315 µg/mL | 400 µg/mL | 600 µg/mL | 50 µg/mL | 100 µg/mL | 100 µg/mL
WALAL-NH2 [P184, WALAL-NH2] | 800 µg/mL | – | – | 850 µg/mL | 570 µg/mL | 600 µg/mL | 440 µg/mL | 302 µg/mL | 260 µg/mL | 370 µg/mL | 800 µg/mL | 100 µg/mL | 25 µg/mL | 100 µg/mL
